Experimental data as given in patent US20240390377A1, “COMPOSITION FOR THE PREVENTION OR TREATMENT OF NEURODEGENERATIVE OR MOTOR NEURON DISEASES COMPRISING HALOFUGINONE AS AN ACTIVE INGREDIENT” (CURAMYS CO., LTD., priority 2022, published 2024).

Tested on: G93A mutant SOD1 transgenic mice
Assay: Immunohistochemical analysis of knee joint synovial cavity in ALS animal model
Type: in vivo, mouse
Protocol: As a control group, non-transgenic mice were injected intraperitoneally (i.p.) with vehicle (DMSO) in the same manner for the same period of time.
Specifically, the mice of Example 6 above were perfused with 4% paraformaldehyde (PFA) on 90 and 120 days of age, and the lumbar spinal cord and knee joints were separated. After fixation in 4% PFA for 24 hours, the knee joints were rinsed in running tap water for 24 hours and then incubated at 4° C. with continuous shaking in decalcifying solution (Calci-Clear, HS-104, National Diagnostics). The decalcification solution was replaced daily with fresh solution until the bones were easily penetrated with a needle, indicating completion of the decalcification process. Subsequently, the decalcified knee joints were rinsed in running tap water for 24 hours, and the spinal cord and knee joint samples were treated with 30% sucrose until they sank, followed by freeze protection, followed by successive cuts (14 μm). The lumbar spinal cord and knee joint tissue sections were washed three times with PBS and permeabilized with 0.5% Triton X-100 for 5 minutes. Subsequently, they were blocked with 5% bovine serum albumin (BSA) in 0.3% PBS-T at room temperature for 1 hour. The knee joint tissue sections were incubated with anti-TGF-β1 antibody (1:200; Santa Cruz, cat #sc130348), anti-α-SMA antibody (1:200; Abcam, cat #ab7817), anti-MyoD antibody (1:200; Santa Cruz, cat #sc377460), and anti-Collagen I antibody (1:200; Abcam, cat #ab21286) each, while the lumbar spinal cord sections were incubated with anti-GFAP antibody (1:200; Dako, cat #Z0334), anti-Iba1 antibody (1:200; Wako, cat #016)-20001), anti-TGF-β1 antibody (1:200; Santa Cruz, cat #sc130348), anti-TGF-β1 antibody (1:200; Abcam, cat #ab92486), and anti-IL-1β antibody (1:200; R&D Systems, cat #AF-401-NA) at 4° C. for an additional 24 hours. After washing the sections three times with PBS, they were incubated with Alexa Fluor secondary antibodies in a dark chamber at room temperature for 1 hour. […] Furthermore, analysis was performed using Leica Application Suite X software (Leica Microsystems).
Specifically, halofuginone was administered to G93A mutant SOD1 mice from the early onset of ALS (day 73) in the same manner as described in Example 6. Immunohistochemical analysis was performed on the knee joints of early-stage female and male mice (90 days old, FIGS. 7a and 7b) and late-stage female and male mice (120 days old, FIGS. 7c and 7d) in the same manner as described in <Example 8>.

[1] = 90 days old (early stage), females and males, vs DMSO TG group
[2] = 120 days old (late stage), vs DMSO TG group

O=C(C[C@H]1NCCC[C@@H]1O)Cn1cnc2cc(Br)c(Cl)cc2c1=O (racemic) [halofuginone]
increase in TGF-β in knee joint synovial cavity (90 days old (early stage), females and males, 250 μg/kg i.p.): suppressed | Col-I expression in knee joint synovial cavity [1]: significantly lower | α-SMA expression in knee joint synovial cavity [1]: significantly lower | Col-I in the synovial cavity [2]: significantly lower | MyoD in the synovial cavity [2]: higher | TGF-β1 in the synovial cavity [2]: significantly lower | α-SMA in the synovial cavity [2]: significantly lower | strength of TGF-β1, MyoD and Col-1 in the synovial cavity (120 days old, female Hal TG group vs DMSO non-TG group): not different | strength of MyoD in the synovial cavity (120 days old, male Hal TG group vs DMSO non-TG group): slightly increased
